The test system of the experiment is Acar19. The format is binding, great reed warbler Acrocephalus arundinaceus. Particulars: Table S5, half-life estimated from dissociation in scintillation proximity assay.
Consider GFPSLESSF [9-mer peptide], for which the “Stability T½ (h), peptide - Acar19” value is given as 0.1 h.

Regarding GYAWIDFDI [9-mer peptide], the “Stability T½ (h), peptide - Acar19” value is given as 0.2 h.

Consider HAATNFREI [9-mer peptide], for which the “Stability T½ (h), peptide - Acar19” value is reported as 0.1 h.

Turning to HTAEIQQFF [9-mer peptide], the “Stability T½ (h), peptide - Acar19” value was 0.3 h.

For HYNAFHWAI [9-mer peptide], the “Stability T½ (h), peptide - Acar19” value is 0.3 h.

In the case of HYNAFQWAI [9-mer peptide], the “Stability T½ (h), peptide - Acar19” value is 0.3 h.

For IAAPNMIAV [9-mer peptide], the “Stability T½ (h), peptide - Acar19” value is recorded as 0.1 h.

Turning to IAASNLEQF [9-mer peptide], the “Stability T½ (h), peptide - Acar19” value was 0.1 h.

Take IAKGIDAEF [9-mer peptide]: the “Stability T½ (h), peptide - Acar19” value is listed as 0.1 h.

As for IALPVAWLF [9-mer peptide], the “Stability T½ (h), peptide - Acar19” value is listed as 0.1 h.

IANTTDHFF [9-mer peptide]: the “Stability T½ (h), peptide - Acar19” value is given as 0.2 h.

For IASPILFPF [9-mer peptide], the “Stability T½ (h), peptide - Acar19” value is recorded as 0.5 h.

With IFDDLQGSL [9-mer peptide], the “Stability T½ (h), peptide - Acar19” value was 0.1 h.

As to IFPSMYFLM [9-mer peptide], the “Stability T½ (h), peptide - Acar19” value is on record as 0.1 h.

In the case of IPAPGLGAL [9-mer peptide], the “Stability T½ (h), peptide - Acar19” value is 0.2 h.

IPKYLEIEI [9-mer peptide]: the “Stability T½ (h), peptide - Acar19” value is recorded as 0.2 h.

Take IPNYLEIEI [9-mer peptide]: the “Stability T½ (h), peptide - Acar19” value is reported as 0.6 h.

IQNALEKAL [9-mer peptide]: the “Stability T½ (h), peptide - Acar19” value is listed as 0.1 h.

Take IQNATMDEF [9-mer peptide]: the “Stability T½ (h), peptide - Acar19” value is on record as 0.1 h.

In the case of IQNEIMKPL [9-mer peptide], the “Stability T½ (h), peptide - Acar19” value is 0.2 h.

Take IQNKLSSTF [9-mer peptide]: the “Stability T½ (h), peptide - Acar19” value is on record as 0.2 h.

With ISARGQELF [9-mer peptide], the “Stability T½ (h), peptide - Acar19” value is listed as 0.1 h.

ISASLAALF [9-mer peptide]: the “Stability T½ (h), peptide - Acar19” value was 0.1 h.

Turning to ISDPLTSGL [9-mer peptide], the “Stability T½ (h), peptide - Acar19” value is on record as 0.1 h.

Turning to ITAALAWSL [9-mer peptide], the “Stability T½ (h), peptide - Acar19” value was 0.1 h.

As to ITDWLNFTL [9-mer peptide], the “Stability T½ (h), peptide - Acar19” value is recorded as 0.1 h.

Consider ITFHNQRDF [9-mer peptide], for which the “Stability T½ (h), peptide - Acar19” value is recorded as 0.2 h.

IYAAISYMI [9-mer peptide]: the “Stability T½ (h), peptide - Acar19” value was 0.3 h.

Turning to IYGIFQSTF [9-mer peptide], the “Stability T½ (h), peptide - Acar19” value is given as 0.1 h.

IYTVIYYIF [9-mer peptide]: the “Stability T½ (h), peptide - Acar19” value is 0.2 h.

In the case of IYYWTAWLI [9-mer peptide], the “Stability T½ (h), peptide - Acar19” value is given as 0.2 h.

On to KASSAWHYF [9-mer peptide], for which the “Stability T½ (h), peptide - Acar19” value was 0.2 h.

With KDPENFDHF [9-mer peptide], the “Stability T½ (h), peptide - Acar19” value is on record as 0.2 h.

Take KFHQIEKEF [9-mer peptide]: the “Stability T½ (h), peptide - Acar19” value is listed as 0.3 h.

KSNGAQQWL [9-mer peptide]: the “Stability T½ (h), peptide - Acar19” value is 0.1 h.

Consider LAASVFFTF [9-mer peptide], for which the “Stability T½ (h), peptide - Acar19” value is 0.2 h.

Regarding LFPELDCFF [9-mer peptide], the “Stability T½ (h), peptide - Acar19” value is recorded as 1.6 h.

On to LMNELGVPF [9-mer peptide], for which the “Stability T½ (h), peptide - Acar19” value is given as 0.6 h.

As for LRHSTAHLL [9-mer peptide], the “Stability T½ (h), peptide - Acar19” value is recorded as 0.1 h.

As for LYIEILRLL [9-mer peptide], the “Stability T½ (h), peptide - Acar19” value is 0.1 h.

Regarding LYPTFYCLF [9-mer peptide], the “Stability T½ (h), peptide - Acar19” value is listed as 0.4 h.

For the sequence MAMGILHTI [9-mer peptide], the “Stability T½ (h), peptide - Acar19” value is listed as 0.1 h.

Turning to MFMMIFHFV [9-mer peptide], the “Stability T½ (h), peptide - Acar19” value is listed as 0.4 h.

Consider MPARLWLCL [9-mer peptide], for which the “Stability T½ (h), peptide - Acar19” value is 0.9 h.

The values are drawn from publication PMC10360169 (Frontiers in Immunology, 2023).
